Measurements taken from US20210259981A1, “COMPOSITIONS AND METHODS OF TREATMENT” (Blueberry Therapeutics Limited, priority 2018, published 2021).
Values after ≈ are worked out from the molar mass of the structure shown.

Legend:
[1] = Franz cell porcine skin permeation, ToF-SIMS tape strip analysis; format: in vitro ADME, pig; conditions: for evidence of permeation (key findings): porcine skin, ToF-SIMS imaging and tape stripping, with or without Nanocin
[2] = test system: IL-8 release, THP-1 cells; assay: LPS-stimulated IL-8 release in THP-1 cells (inflammation assay); format: cell-based, human; conditions: for potency at inhibiting the LPS inflammatory response (in words): IL-8, dose range 0-30 ug/ml; for MIC (inhibiting the LPS IL-8 response): API dose range 0-30 ug/ml
[3] = Solubility of APIs in ethanol & water vehicles; format: physicochemical; conditions: for Solubility in water and ethanol (in words): comparison among the screened APIs
[4] = Franz cell porcine skin permeation, ToF-SIMS cross sectional analysis; format: in vitro ADME, pig; conditions: cross sections; 1 mg/ml Diclofenac; partial embedding
Experimental: The experimental work involved applying various formulations to the skin in a Franz cell, leaving it for 24 hours as an infinite dose. Initial formulations were 1 mg/ml Nanocin and 300 ug/ml API in 20% ethanol. The same concentration of formulation were also used using FITC labelled Nanocin. Methods of detection was by: Franz Cell Method 1: Full OCT Embedding Method and Cryo-Sectioning; Franz Cell Method 2: Partial OCT Embedding and Cryo-Sectioning; Franz Cell Method 3: Partial OCT Embedding and Tape Stripping; and Time-of-Flight Secondary Ion Mass Spectrometry (ToF-SIMS) Fluorescence Microscopy.
Porcine ears used for the Franz cell analysis were sourced from a local abattoir. The age of the pig slaughtered were between 4-6 months old. The ears were cleaned with deionised water and the outside skin was carefully removed from the underlying cartilage. The excised skin was then stored at −20° C. until use. All ears used for the permeation experiment were within 6 months after procurement.
Prior to setting up the Franz cells, the skin was defrosted by leaving it at room temperature and pressure. Excess hairs on the porcine skin were not trimmed in this instance (to promote capacity to identify follicular delivery). […]

[5] = test system: TNF-α release, THP-1 cells; assay: LPS-stimulated TNF-α release in THP-1 cells (inflammation assay); format: cell-based, human; conditions: final concentration 1 or 0.1 ug/ml; normalised with cell count
Experimental: The release of cytokines (looking particularly at those associated with inflammation-TNF-α, IL-8, IL-1α) after stimulation with lipopolysaccharide (LPS) is a valid model system to test compounds for potential anti-inflammatory effects (Reference 1)
To standardise conditions for the assay, a LPS dose (0-1 ug/ml) was investigated on TNF-α, IL-8 and IL-1α response, over a time period from 2, 4 and 24 hours.
A 1:1 mg/ml (Nanocin:API) was initially formulated in 20% ethanol and the stock formulation was then diluted down with serum free media and tested at a final concentration of 1 or 0.1 ug/ml.

Solubility in water and ethanol (in words) [3] | Structure (SMILES) | evidence of permeation (key findings) [1] | potency at inhibiting the LPS inflammatory response (in words) ([2]; THP-1 cells) | MIC (inhibiting the LPS IL-8 response) ([2]; THP-1 cells, 24 h) [µg/mL] | other results
– | C=CC[C@@H]1/C=C(\C)C[C@H](C)C[C@H](OC)[C@H]2O[C@@](O)(C(=O)C(=O)N3CCCC[C@H]3C(=O)O[C@H](/C(C)=C/[C@@H]3CC[C@@H](O)[C@H](OC)C3)[C@H](C)[C@@H](O)CC1=O)[C@H](C)C[C@@H]2OC [Tacrolimus] | no evidence | more potent than Ibuprofen | 0.3 (≈ 0.373 µM) | anti-inflammatory effect, IL-8 normalised with cell count ([2]; 30 ug/ml API, 10 ug/ml LPS, 24 h): more effective anti-inflammatory; Solubility ([3]; 10 mg/ml API solution, 10% ethanol): x(better)
insolubility | Cc1ccc(-c2cc(C(F)(F)F)nn2-c2ccc(S(N)(=O)=O)cc2)cc1 [Celecoxib] | – | – | – | –
– | CO[C@H]1C[C@@H]2CC[C@@H](C)[C@@](O)(O2)C(=O)C(=O)N2CCCC[C@H]2C(=O)O[C@H]([C@H](C)C[C@@H]2CC[C@@H](O)[C@H](OC)C2)CC(=O)[C@H](C)/C=C(\C)[C@@H](O)[C@@H](OC)C(=O)[C@H](C)C[C@H](C)/C=C/C=C/C=C/1C [Rapamycin] | no evidence | – | 1 (≈ 1.09 µM) | –
better solubility | CC(C)Cc1ccc(C(C)C(=O)O)cc1 (stereo not drawn) [Ibuprofen] | no evidence | – | – | effect on reducing the IL-8 release ([2]; 30 ug/ml API, LPS 24 h, THP-1 cells): very little effect

Structure (SMILES) | Solubility in water and ethanol (in words) [3] | evidence of permeation (key findings) [1] | potency at inhibiting the LPS inflammatory response (in words) ([2]; THP-1 cells) | MIC (inhibiting the LPS IL-8 response) ([2]; THP-1 cells, 24 h) [µg/mL] | other results
O=C(O)Cc1ccccc1Nc1c(Cl)cccc1Cl [Diclofenac] | most soluble | – | more potent than Ibuprofen | 1 (≈ 3.38 µM) | presence of NaCl2— and Na2Cl3— ions (diclofenac markers) ([1]; tape strips 1-3, 1 mg/ml Diclofenac): none; intensity of Cl—, NaCl2- and Na2Cl3- markers in the stratum corneum [4]: slight elevation; LPS-stimulated IL-8 response ([2]; final concentration 1 or 0.1 ug/ml, normalised with cell count): reduced; LPS-stimulated TNF-α response [5]: reduced
